Experimental data reported in patent US6608082B1, “Treatment of erectile dysfunction using isoquinoline compound melanocortin receptor ligands” (Lion Bioscience AG, priority 1998, dated 2003).
Where two headings read alike, the source gives them in different places. One block for each compound: values may come before it.

Columns and labels:
MCR-4 = biological target: T1, MCR-4 (Homo sapiens, UniProt P32245); assay: Melanocortin receptor binding assay, competition with 125I-HP 467, HEK 293 cells expressing hMCR-4; settings: for IC50: read-out: MC-4 IC50
T1 construct: expressed in transfected cells; host or cells: HEK 293
T1 sequence (P32245 whole entry): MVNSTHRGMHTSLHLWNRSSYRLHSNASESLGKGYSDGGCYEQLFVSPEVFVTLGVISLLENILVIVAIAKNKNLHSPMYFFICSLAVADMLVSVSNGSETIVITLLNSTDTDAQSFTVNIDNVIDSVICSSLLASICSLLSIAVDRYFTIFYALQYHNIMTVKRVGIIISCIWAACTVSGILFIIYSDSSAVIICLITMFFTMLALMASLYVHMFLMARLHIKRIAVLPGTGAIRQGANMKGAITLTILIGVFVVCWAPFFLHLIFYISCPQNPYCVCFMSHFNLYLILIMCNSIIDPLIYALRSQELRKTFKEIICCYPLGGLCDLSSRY
Method in brief: (§1)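 Intact-cell competition binding, 2.5 hr at 37 °C, in PBS/10% calf serum/1 mM CaCl2; hMCR-4 cells at 4×10^3 per tube, hMCR-1 cells at 2×10^4 per tube. Filtration on BSA/CaCl2-soaked GF/B, cold 50 mM Tris pH 7.4 washes, scintillation count.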

MCR-1 = biological target: T2, MCR-1 (Homo sapiens, UniProt Q01726); assay: Melanocortin receptor binding assay, competition with 125I-HP 467, HEK 293 cells expressing hMCR-1; settings: for IC50: read-out: MC-1 IC50
T2 construct: expressed in transfected cells; host or cells: HEK 293
T2 sequence (Q01726 whole entry): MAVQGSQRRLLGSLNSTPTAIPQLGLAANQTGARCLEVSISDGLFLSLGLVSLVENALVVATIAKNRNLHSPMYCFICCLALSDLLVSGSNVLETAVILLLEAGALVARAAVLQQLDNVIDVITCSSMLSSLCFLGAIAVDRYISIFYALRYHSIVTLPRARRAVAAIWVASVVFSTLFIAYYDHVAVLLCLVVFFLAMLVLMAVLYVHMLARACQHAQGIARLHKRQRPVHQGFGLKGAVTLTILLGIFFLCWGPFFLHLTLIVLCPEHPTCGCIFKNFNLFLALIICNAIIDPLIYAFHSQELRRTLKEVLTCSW
Method in brief: as §1

[1] = inhibition of binding of 125I-HP 467, HEK 293 cells expressing MCR-4, TRG 2414 library
[2] = inhibition of binding of 125I-HP 467, HEK 293 cells expressing MCR-1, TRG 2414 library
[3] = TRG 2414 library, inhibition of binding of 125I-HP 467, HEK 293 cells expressing MCR-4
[4] = TRG 2414 library, inhibition of binding of 125I-HP 467, HEK 293 cells expressing MCR-1
[5] = competition with 125I-HP 467, HEK 293 cells expressing MCR-4
[6] = competition with 125I-HP 467, HEK 293 cells expressing MCR-1
[7] = TRG 2406 and TRG 2407 libraries, inhibition of binding of 125I-HP 467
[8] = TRG 2408 and TRG 2409 libraries, inhibition of 125I-HP 467 binding
[9] = inhibition of binding of 125I-HP 467, HEK 293 cells expressing MCR-4
[10] = inhibition of binding of 125I-HP 467, HEK 293 cells expressing MCR-1

IC50 (MCR-4; [1]): 18.7 µM
IC50 (MCR-1; [2]): 6.43 µM
SMILES: CCOc1ccccc1CNCC1c2ccccc2CN(CCCCC(CN)NCCc2ccccc2)C1c1ccc(Oc2ccccc2)cc1 (stereo not shown) [TRG 2414-126]

IC50 (MCR-4; [3]): 6.2 µM
IC50 (MCR-1; [4]): 7.04 µM
SMILES: CCOc1ccccc1CNCC1c2ccccc2CN(CCCCC(CN)NCCc2ccccc2)C1c1ccccc1Br (stereo not shown) [Cmpd 206]

IC50 (MCR-4; [1]): 11.3 µM
IC50 (MCR-1; [2]): 4.38 µM
SMILES: COc1ccc(CNCC2c3ccccc3CN(CCCCC(CN)NCCc3ccccc3)C2c2ccc(Oc3ccccc3)cc2)cc1 (stereo not shown) [TRG 2414-142]

MC-4 IC50 (MCR-4; [1]): no fit
IC50 (MCR-1; [2]): 17.5 µM
SMILES: CC(C)Cc1ccc(C(C)CNC(CN)CCCCN2Cc3ccccc3C(CNC3CCCCC3)C2c2ccc(Oc3ccccc3)cc2)cc1 (stereo not shown) [TRG 2414-160]

IC50 (MCR-4; [5]): 1.8 µM
IC50 (MCR-1; [6]): 0.83 µM
SMILES: CCCCNC(CN)CCCCN1Cc2ccccc2C(CNCCc2ccccc2)C1c1ccc(-c2ccccc2)cc1 (stereo not shown) [TRG 2411-11]

IC50 (MCR-4; [7]): 2.75 µM
IC50 (MCR-1; [7]): 7.22 µM
SMILES: CCCOc1ccc(C2C(CNCc3ccccc3O)c3ccccc3CN2CC(CN)NC)cc1 (stereo not shown) [TRG 2406-15]

IC50 (MCR-4; [5]): 16.2 µM
IC50 (MCR-1; [6]): 1.65 µM
SMILES: CNC(CN)CCCCN1Cc2ccccc2C(CNC2CCCCC2)C1c1ccc(NCC2CCCCC2)cc1 (stereo not shown) [TRG 2409-15]

IC50 (MCR-4; [1]): 27.9 µM
IC50 (MCR-1; [2]): 17 µM
SMILES: CCCOc1ccc(C2C(CNCc3ccc(OC)cc3)c3ccccc3CN2CCCCC(CN)NCC(C)c2ccc(CC(C)C)cc2)cc1 (stereo not shown) [TRG 2414-184]

IC50 (MCR-4; [5]): 15.5 µM
IC50 (MCR-1; [6]): 2.08 µM
SMILES: CNC(CN)CCCCN1Cc2ccccc2C(CNC2CCCCC2)C1c1ccc(NCCc2ccccc2)cc1 (stereo not shown) [TRG 2409-19]

IC50 (MCR-4; [7]): 2.01 µM
IC50 (MCR-1; [7]): 3.97 µM
SMILES: CNC(CN)CCCCN1Cc2ccccc2C(CNN2CCCCC2)C1c1ccc(Cl)cc1Cl (mixture of isomers) [TRG 2407-34]

IC50 (MCR-4; [5]): 1.22 µM
IC50 (MCR-1; [6]): 0.6 µM
SMILES: NCC(N)CCCCN1Cc2ccccc2C(CNCCc2ccccc2)C1c1ccc(-c2ccccc2)cc1 (stereo not shown) [TRG 2411-1]

IC50 (MCR-4; [3]): 37 µM
IC50 (MCR-1; [4]): 13.3 µM
SMILES: CCCOc1ccc(C2C(CNC3CCCCCC3)c3ccccc3CN2CCCCC(CN)NCC(C)c2ccc(CC(C)C)cc2)cc1 (stereo not shown) [Cmpd 196]

IC50 (MCR-4; [1]): 10 µM
IC50 (MCR-1; [2]): 11.1 µM
SMILES: NCC(CCCCN1Cc2ccccc2C(CNCc2ccccc2)C1c1cccc(Oc2ccccc2)c1)NCCc1ccccc1 (stereo not shown) [TRG 2414-110]

IC50 (MCR-4; [1]): 42.6 µM
MC-1 IC50 (MCR-1; [2]): no fit
SMILES: CC(C)Cc1ccc(C(C)CNC(CN)CCCCN2Cc3ccccc3C(CNCCc3cccc(Cl)c3)C2c2cc(C(F)(F)F)cc(C(F)(F)F)c2)cc1 (stereo not shown) [TRG 2414-56]

IC50 (MCR-4; [8]): 16.4 µM
IC50 (MCR-1; [8]): 10.2 µM
SMILES: NCC(CCCN1Cc2ccccc2C(CNC2CCCCC2)C1c1ccc(-c2ccccc2)cc1)NCCc1ccccc1 (stereo not shown) [TRG 2408-82]

IC50 (MCR-4; [9]): 6.41 µM
IC50 (MCR-1; [10]): 0.082 µM
SMILES: CCNc1ccc(C2C(CN)c3ccccc3CN2CCCC(CN)NCCCCNCc2ccccc2)cc1 (stereo not shown) [TRG 2419-6]

MC-4 IC50 (MCR-4; [1]): no fit
MC-1 IC50 (MCR-1; [2]): no fit
SMILES: CC(C)Cc1ccc(C(C)CNC(CN)CCCCN2Cc3ccccc3C(CNCc3ccccc3C(F)(F)F)C2c2ccc(Oc3ccccc3)cc2)cc1 (stereo not shown) [TRG 2414-124]

IC50 (MCR-4; [1]): 5.58 µM
IC50 (MCR-1; [2]): 0.146 µM
SMILES: COc1ccccc1CCNCC1c2ccccc2CN(CCCCC(N)CN)C1c1ccc(Oc2ccccc2)cc1 (mixture of isomers) [TRG 2414-129]

MC-4 IC50 (MCR-4; [3]): no fit
MC-1 IC50 (MCR-1; [4]): no fit
SMILES: NCC(N)CCCCN1Cc2ccccc2C(CNCc2ccccc2C(F)(F)F)C1c1ccccc1Br (stereo not shown) [Cmpd 201]

IC50 (MCR-4; [9]): 6.91 µM
IC50 (MCR-1; [10]): 1.09 µM
SMILES: CCNc1ccc(C2C(CN)c3ccccc3CN2CCCC(CN)NCCCCO)cc1 (stereo not shown) [TRG 2419-8]

IC50 (MCR-4; [5]): 0.77 µM
IC50 (MCR-1; [6]): 0.61 µM
SMILES: CCCCNC(CN)CCCCN1Cc2ccccc2C(CNC2CCCCC2)C1c1ccc(-c2ccccc2)cc1 (stereo not shown) [TRG 2411-20]

SMILES: COc1ccc(CCNCC2c3ccccc3CN(CCCCC(CN)NCc3ccc(Br)cc3)C2c2cc(C(F)(F)F)cc(C(F)(F)F)c2)cc1 (stereo not shown) [TRG 2421-13]
IC50 (MCR-4; [9]): 8.11 µM
IC50 (MCR-1; [10]): 4.41 µM

IC50 (MCR-4; [8]): 29.3 µM
IC50 (MCR-1; [8]): 3.19 µM
SMILES: NC[C@H](N)CCCCN1Cc2ccccc2C(CNC2CCCCC2)C1c1ccc(-c2ccccc2)cc1 (stereo partly shown) [TRG 2408-51]

IC50 (MCR-4; [7]): 2.62 µM
IC50 (MCR-1; [7]): 5.44 µM
SMILES: CNC(CN)CN1Cc2ccccc2C(CNCc2ccccc2O)C1c1ccc(Oc2ccccc2)cc1 (stereo not shown) [TRG 2406-12]

IC50 (MCR-4; [8]): 4.28 µM
IC50 (MCR-1; [8]): 1.56 µM
SMILES: CNCCNC(CN)CCCN1Cc2ccccc2C(CNC2CCCCC2)C1c1ccc(Cl)cc1Cl (stereo not shown) [TRG 2408-74]

IC50 (MCR-4; [3]): 3.61 µM
IC50 (MCR-1; [4]): 5.87 µM
SMILES: NCC(N)CCCCN1Cc2ccccc2C(CNC2CCCCC2)C1c1ccccc1Br (stereo not shown) [Cmpd 237]
